Laboratory results published in PMC12087296 (Microbial Biotechnology, 2025).
Like-named read-outs stand apart in the source and are kept apart here.

Assays:
TlpQ [1] = target: T1, TlpQ (Pseudomonas aeruginosa, UniProt Q9I0I4); assay: isothermal titration calorimetry, […]°C; format: binding
TlpQ [2] = target: T1, TlpQ; assay: isothermal titration calorimetry, […]°C; format: binding; remark: listed apart in the source

T1 sequence (Q9I0I4 33-363 limits assumed): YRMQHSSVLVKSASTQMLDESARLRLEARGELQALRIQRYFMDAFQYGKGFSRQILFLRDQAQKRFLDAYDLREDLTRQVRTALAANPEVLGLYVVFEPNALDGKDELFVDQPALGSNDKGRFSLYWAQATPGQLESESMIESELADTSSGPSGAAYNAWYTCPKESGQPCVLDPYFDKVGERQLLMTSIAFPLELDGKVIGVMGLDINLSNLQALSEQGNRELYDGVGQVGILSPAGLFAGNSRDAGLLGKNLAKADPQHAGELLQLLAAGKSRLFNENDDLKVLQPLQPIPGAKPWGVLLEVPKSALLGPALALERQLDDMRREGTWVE

Structure (SMILES) | Kd (TlpQ [1]) | Kd (TlpQ [2])
NCCc1ccc(O)c(O)c1 [dopamine] | 137 µM | –
CNC[C@H](O)c1ccc(O)c(O)c1 [epinephrine] | – | 363 µM
